# Data taken from the supplement of paper PMC10307832.
# Key:
# Assay in all cases: relative viability (nuclei count vs DMSO), 5 days (fraction); higher = more cells survive
# LOU-NH91 = test system: LOU-NH91
# In short: (§1)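 The day after seeding in 1536-well plates, lung cancer cell lines were treated by pin tool with a single drug, or with a fixed anchor-drug dose together with five library-drug doses (not always all listed) in √10 steps. After 5 days, a combined fix-and-stain solution (final 0.05% Triton X-100, 1% formaldehyde, 1 ug/ml Hoechst) was added. Nuclei counted on 4× images gave relative viability as treated counts over vehicle counts, reported as the median of duplicate plates.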
# NCI-H1395 = test system: NCI-H1395
# In short: as §1
# NCI-H2087 = test system: NCI-H2087
# In short: as §1
# NCI-H2126 = test system: NCI-H2126
# In short: as §1
# HARA = test system: HARA
# In short: as §1
# NCI-H2170 = test system: NCI-H2170
# In short: as §1
# RERF-LC-KJ = test system: RERF-LC-KJ
# In short: as §1
# NCI-H1993 = test system: NCI-H1993
# In short: as §1
# HOP-62 = test system: HOP-62
# In short: as §1
# COR-L 105 = test system: COR-L 105
# In short: as §1
# EMC-BAC-2 = test system: EMC-BAC-2
# In short: as §1
# BEN = test system: BEN
# In short: as §1
# UMC-11 = test system: UMC-11
# In short: as §1
# LXF-289 = test system: LXF-289
# In short: as §1
# H3255 = test system: H3255
# In short: as §1
# 201T = test system: 201T
# In short: as §1
# HCC-78 = test system: HCC-78
# In short: as §1
# SW 900 = test system: SW 900
# In short: as §1
# SK-MES-1 = test system: SK-MES-1
# In short: as §1
# NCI-H650 = test system: NCI-H650
# In short: as §1
# LC-2-ad = test system: LC-2-ad
# In short: as §1
# LU99A = test system: LU99A
# In short: as §1
smiles,measurement,setting,value
CCNC(=O)c1noc(-c2cc(C(C)C)c(O)cc2O)c1-c1ccc(CN2CCOCC2)cc1 [Luminespib] + CC(=O)Nc1cccc(-n2c(=O)n(C3CC3)c(=O)c3c(Nc4ccc(I)cc4F)n(C)c(=O)c(C)c32)c1 [Trametinib] (partner 0.02 µM),relative viability,LOU-NH91; first compound 0.002 µM,0.807
same,relative viability,LOU-NH91; first compound 0.006325 µM,0.775
same,relative viability,LOU-NH91; first compound 0.02 µM,0.6
same,relative viability,LOU-NH91; first compound 0.06325 µM,0.417
same,relative viability,LOU-NH91; first compound 0.2 µM,0.385
same,relative viability,NCI-H1395; first compound 0.002 µM,0.994
same,relative viability,NCI-H1395; first compound 0.006325 µM,1.05
same,relative viability,NCI-H1395; first compound 0.02 µM,0.827
same,relative viability,NCI-H1395; first compound 0.06325 µM,0.35
same,relative viability,NCI-H1395; first compound 0.2 µM,0.379
same,relative viability,NCI-H2087; first compound 0.002 µM,0.197
same,relative viability,NCI-H2087; first compound 0.006325 µM,0.218
same,relative viability,NCI-H2087; first compound 0.02 µM,0.205
same,relative viability,NCI-H2087; first compound 0.06325 µM,0.146
same,relative viability,NCI-H2087; first compound 0.2 µM,0.11
same,relative viability,NCI-H2126; first compound 0.002 µM,0.608
same,relative viability,NCI-H2126; first compound 0.006325 µM,0.608
same,relative viability,NCI-H2126; first compound 0.06325 µM,0.667
same,relative viability,NCI-H2126; first compound 0.2 µM,0.599
same,relative viability,HARA; first compound 0.002 µM,0.667
same,relative viability,HARA; first compound 0.006325 µM,0.614
same,relative viability,HARA; first compound 0.02 µM,0.471
same,relative viability,HARA; first compound 0.06325 µM,0.121
same,relative viability,HARA; first compound 0.2 µM,0.141
same,relative viability,NCI-H2170; first compound 0.002 µM,0.915
same,relative viability,NCI-H2170; first compound 0.006325 µM,0.932
same,relative viability,NCI-H2170; first compound 0.06325 µM,0.896
same,relative viability,NCI-H2170; first compound 0.2 µM,0.841
same,relative viability,RERF-LC-KJ; first compound 0.002 µM,0.867
same,relative viability,RERF-LC-KJ; first compound 0.006325 µM,0.903
same,relative viability,RERF-LC-KJ; first compound 0.02 µM,0.711
same,relative viability,RERF-LC-KJ; first compound 0.06325 µM,0.437
same,relative viability,RERF-LC-KJ; first compound 0.2 µM,0.21
same,relative viability,NCI-H1993; first compound 0.002 µM,0.562
same,relative viability,NCI-H1993; first compound 0.006325 µM,0.424
same,relative viability,NCI-H1993; first compound 0.02 µM,0.488
same,relative viability,NCI-H1993; first compound 0.06325 µM,0.461
same,relative viability,NCI-H1993; first compound 0.2 µM,0.474
same,relative viability,HOP-62; first compound 0.002 µM,0.37
same,relative viability,HOP-62; first compound 0.006325 µM,0.351
same,relative viability,HOP-62; first compound 0.02 µM,0.311
same,relative viability,HOP-62; first compound 0.06325 µM,0.309
same,relative viability,HOP-62; first compound 0.2 µM,0.183
same,relative viability,COR-L 105; first compound 0.002 µM,0.46
same,relative viability,COR-L 105; first compound 0.006325 µM,0.43
same,relative viability,COR-L 105; first compound 0.02 µM,0.384
same,relative viability,COR-L 105; first compound 0.06325 µM,0.265
same,relative viability,COR-L 105; first compound 0.2 µM,0.278
same,relative viability,EMC-BAC-2; first compound 0.002 µM,0.857
same,relative viability,EMC-BAC-2; first compound 0.02 µM,0.643
same,relative viability,EMC-BAC-2; first compound 0.06325 µM,0.619
same,relative viability,EMC-BAC-2; first compound 0.2 µM,0.247
same,relative viability,BEN; first compound 0.002 µM,1.11
same,relative viability,BEN; first compound 0.006325 µM,1
same,relative viability,BEN; first compound 0.02 µM,0.481
same,relative viability,BEN; first compound 0.06325 µM,0.748
same,relative viability,BEN; first compound 0.2 µM,0.341
same,relative viability,UMC-11; first compound 0.002 µM,0.496
same,relative viability,UMC-11; first compound 0.006325 µM,0.685
same,relative viability,UMC-11; first compound 0.02 µM,0.308
same,relative viability,UMC-11; first compound 0.06325 µM,0.212
same,relative viability,UMC-11; first compound 0.2 µM,0.157
same,relative viability,LXF-289; first compound 0.002 µM,0.691
same,relative viability,LXF-289; first compound 0.006325 µM,0.649
same,relative viability,LXF-289; first compound 0.02 µM,0.669
same,relative viability,LXF-289; first compound 0.06325 µM,0.622
same,relative viability,LXF-289; first compound 0.2 µM,0.624
same,relative viability,H3255; first compound 0.002 µM,0.549
same,relative viability,H3255; first compound 0.02 µM,0.405
same,relative viability,H3255; first compound 0.06325 µM,0.386
same,relative viability,H3255; first compound 0.2 µM,0.278
same,relative viability,201T; first compound 0.002 µM,0.667
same,relative viability,201T; first compound 0.006325 µM,0.706
same,relative viability,201T; first compound 0.02 µM,0.675
same,relative viability,201T; first compound 0.06325 µM,0.67
same,relative viability,201T; first compound 0.2 µM,0.674
same,relative viability,HCC-78; first compound 0.002 µM,0.74
same,relative viability,HCC-78; first compound 0.006325 µM,0.61
same,relative viability,HCC-78; first compound 0.02 µM,0.572
same,relative viability,HCC-78; first compound 0.06325 µM,0.874
same,relative viability,HCC-78; first compound 0.2 µM,0.512
same,relative viability,SW 900; first compound 0.002 µM,0.837
same,relative viability,SW 900; first compound 0.006325 µM,0.919
same,relative viability,SW 900; first compound 0.02 µM,0.659
same,relative viability,SW 900; first compound 0.06325 µM,0.165
same,relative viability,SW 900; first compound 0.2 µM,0.131
same,relative viability,SK-MES-1; first compound 0.002 µM,0.551
same,relative viability,SK-MES-1; first compound 0.006325 µM,0.469
same,relative viability,SK-MES-1; first compound 0.02 µM,0.576
same,relative viability,SK-MES-1; first compound 0.06325 µM,0.177
same,relative viability,SK-MES-1; first compound 0.2 µM,0.166
same,relative viability,NCI-H650; first compound 0.002 µM,1.06
same,relative viability,NCI-H650; first compound 0.006325 µM,0.881
same,relative viability,NCI-H650; first compound 0.02 µM,0.629
same,relative viability,NCI-H650; first compound 0.06325 µM,0.262
same,relative viability,NCI-H650; first compound 0.2 µM,0.086
same,relative viability,LC-2-ad; first compound 0.002 µM,0.926
same,relative viability,LC-2-ad; first compound 0.006325 µM,0.903
same,relative viability,LC-2-ad; first compound 0.02 µM,1.06
same,relative viability,LC-2-ad; first compound 0.06325 µM,0.889
same,relative viability,LC-2-ad; first compound 0.2 µM,0.647
same,relative viability,LU99A; first compound 0.002 µM,0.534
same,relative viability,LU99A; first compound 0.006325 µM,0.493
same,relative viability,LU99A; first compound 0.02 µM,0.378
same,relative viability,LU99A; first compound 0.06325 µM,0.482
same,relative viability,LU99A; first compound 0.2 µM,0.507
